In paper PMC7567501 (Journal of Enzyme Inhibition and Medicinal Chemistry, 2019):
Like-named read-outs stand apart in the source and are kept apart here.

Experiments:
AChE = target: T1, AChE (Electrophorus electricus, UniProt O42275); assay: biochemical; set-up: species or system Electrophorus electricus (electric eel)
T1 construct: extracted from Electrophorus electricus (electric eel); purchased Sigma-Aldrich; host or cells: Electrophorus electricus (extracted)
Description: The electronic spectra and the AChE inhibition assays were performed in a 1-cm path length quartz cell with a Perkin Elmer Lambda 35 spectrophotometer equipped with a temperature programmer PTP1 + 1 Peltier System (T = 25.0 ± 0.1 °C). The enzyme AChE 500 U, extracted from Electrophorus electricus (electric eel), was purchased from Sigma-Aldrich.
The enzymatic activity of AChE was determined using an adaptation of the Ellman’s method, as described previously[29]^,[32]. Firstly, a stock solution of AChE was prepared by dissolving enzyme 500 U in 10 mL of tris(hydroxymethyl)aminomethane (TRIS) buffer (50 mM, pH 8). Then, 4–(2-hydroxyethyl)-1-piperazineethanesulfonic acid (HEPES) buffer was used for further dilution of the enzyme solution therefore obtaining the final working solution of AChE. The assay solution consisted of 374 µL of HEPES buffer (50 mM and pH 8.0), a variable volume (10–50 µL) of the compound’s stock solution (1 mg/mL of MeOH), 476 µL of 3 mM bis(3-carboxy-4-nitrophenyl) disulphide (DTNB), 25 µL of AChE stock solution and the necessary amount of methanol to attain the same volume of sample mixture in a 1 mL cuvette. After mixing, samples were left to incubate for 15 min and then 75 µL of 16 mM acetylthiocholine iodide (AChI) solution was added and immediately the reaction was monitored at 405 nm for 5 min. Firstly, enzyme activity was determined by measuring the rate of enzymatic reaction in solution by recording absorbance (with or without enzyme) at 405 nm. To calculate the percent inhibition of AChE, the enzyme activity in the presence of increasing concentrations of the test compound, as well as for a blank reaction (methanol without compounds), were measured at 405 nm.
Where v1is the initial reaction rate in the presence of the inhibitor and v0 is the initial rate of the control reaction. The curves of inhibition were obtained using a plot of percentage of enzymatic inhibition versus inhibitor concentration, and a calibration curve was obtained from which the linear regression parameters were obtained.

Aβ1-42 [1] = target: T2, Aβ1-42 (Homo sapiens, UniProt P05067); assay: biochemical; settings: read-out: Aβ aggregation inhibition, Self-Aβ aggr
T2 construct: Amyloid β-peptide (1–42), Aβ1-42, was purchased from GeneCust; purchased GeneCust
T2 sequence (P05067 672-713 limits assumed): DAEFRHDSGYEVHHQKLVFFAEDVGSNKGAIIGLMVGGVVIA
From the text: (§1) The Aβ amyloid plaques are one of the main hallmarks of AD and they result from over production and aggregation of β-amyloid peptide, which can accumulate outside the neurons, by self-mediated or Cu^2+-induced process, interfering with the synaptic impairment, neurotransmission and memory. Therefore, anti-AD drugs have been designed aimed to disrupt and disaggregate the Aβ’s fibrils into monomers, obtaining non-toxic forms of β-secretase’s products. To assess the effect of these new hybrids in the inhibition of amyloid peptide aggregation, a selection of the compounds was in vitro assayed, based on the thioflavin T (ThT) method. Indeed ThT is a histochemical dye able to create ionic or hydrophobic interactions with the peptide β–sheets, the predominant secondary structure of the amyloid fibrils in aqueous solutions[36]. This binding interactions can be monitored by fluorimetry since the presence of ThT-fibrils increases the absorbance and the emission of the ThT dye, and induces red shifts on the absorbance (from 385 to 446 nm) and emission peaks (from 445 to 485 nm)[14]. All the measurements were performed after incubation of the self-mediated and Cu^2+-induced Aβ aggregates in the presence/absence of the herein studied compounds. […]. […] This may be rationalised on the basis of their copper chelating capacity, as previously shown by other metal chelating compounds[14]^,[38]. Furthermore, despite some exceptions (e.g. 20 and 24), the increase in linker length and the chloro TAC substitution induce some small negative effects in the inhibition of Aβ self-aggregation.
(§2) For the study of the β-amyloid (Aβ) aggregation, the ThT fluorescence assay was performed using a Varian Cary Eclipse fluorimeter at the following wavelengths: excitation (446 nm) and emission (485 nm). Amyloid β-peptide (1–42), Aβ1-42, was purchased from GeneCust as a lyophilised powder stored at −20 °C. TEM assays were performed with a Hitachi H8100 transmission electron microscope with a LaB6 filament (200 kV, 10000–20000 × magnification) at MicroLab/IST.
(§3) Among all the methods to measure the aggregation of Aβ1-42, the assay based on Thioflavin T (ThT) is the standard procedure based on the fluorescence of this dye[49]^,[50]. This test is performed with Aβ1-42 peptide previously prepared by dissolving it in 1,1,1,3,3,3–hexafluoro-2-propanol (HFIP), an organic solvent useful to solubilise and monomerize the β–sheet protein aggregates and reserve them in the fridge. Films are re-dissolved in an Eppendorf tube with a fresh solution of a mixture of CH3CN/Na2CO3/NaOH, to have a stable stock solution, and afterwards, added to an optimised fibrillation phosphate buffer. The samples were prepared using MeOH (1 mg/mL) as solvent, followed by incubation in a water bath for 24 h at 37 °C with gentle shaking. After incubation, the samples were added to a 96-well plate (BD Falcon) with 180 µL of 5 µM ThT in 50 mM glycine-NaOH (pH 8.5) buffer. Blank samples were prepared for each concentration in a similar way, devoid of peptide. After 5-min incubation with the dye, the ThT fluorescence was measured at 446 nm (excitation) and 485 nm (emission).

SH-SY5Y cells = assay: Dose-response screening for non-toxic concentrations, MTT reduction assay; assay type: cell-based, human; settings: 10 µM to 40 µM, 25 h
Description: The neuroprotective effect of these new multi-target drugs designed for AD was evaluated using SH-SY5Y cells treated with Aβ1-42 peptides or ascorbate/iron. For each compound we performed a dose-response curve to select a non-toxic concentration (Figure 7).
Figure 7. Dose-response screening to select non-toxic concentrations of TAC-BF hybrids. Cells were treated with varying concentration of TAC-BF conjugates (from 10 μM to 40 μM) for 25 h and cell viability was determined using the MTT reduction assay.
SH-SY5Y human neuroblastoma cell line (ATCC-CRL-2266) is grown in Dulbecco’s modified Eagle’s medium (DMEM), and were obtained from Gibco-Invitrogen (Life Technologies Ltd, UK) with 10% heat inactivated foetal calf serum, containing 50 U/mL penicillin and 50 µg/mL streptomycin, under a humidified atmosphere of 95% air- 5% CO2 at 37 °C. Cells were plated at 0.12 × 10^6 cells/mL for cell viability assay. The tested compounds (18, 19, 20, 21, 23 and 24) were dissolved in DMSO at a concentration of 50 mM and aliquots were stored at −20 °C. We performed a dose-response screening (from 10 µM to 40 µM) in order to choose the highest non-toxic concentration. As a result we selected: 20 µM final concentrations for compounds 18, 19, 20 and 23; 20 µM final concentration for compound 19; 35 µM final concentration for compounds 21 and 24. […] The compounds were added to the cell media 1 h before the incubation with Aβ1-42 or L-ascorbic acid/ferrous sulphate. Aβ1-42 or L-ascorbic acid/ferrous sulphate where incubated alone or with the compound for an additional 24 h. Aβ1-42 was prepared as 276.9 µM stock in sterile water and added to the medium at 2.5 µM final concentration. Ferrous sulphate was freshly prepared as 0.36 M stock in water and added to the medium at 500 µM final concentration. L-Ascorbic Acid was freshly prepared as 80 mM stock in water and added to the medium at 5 mM final concentration. Aβ1-42 was purchased from Bachem (Torrance, CA, USA) and ferrous sulphate and L-ascorbic acid from Sigma Chemical Co (St. Louis, MO, USA).
Cell viability was determined by the MTT (3–(4,5-dimethylthiazol-2-yl)-2,5-diphenyltetrazolium bromide) reduction test. In viable cells, the enzyme succinate dehydrogenase metabolises MTT into a formazan that absorbs light at 570 nm. Following the cell treatment protocol, the medium was aspirated and 0.5 mL MTT (0.5 mg/mL) was added to each well. The plate was then incubated at 37 °C for 1 h 30 min protected from light. At the end of the incubation period, the formazan precipitates were solubilised with 0.5 mL of acidic isopropanol (0.04 M HCl/isopropanol). The absorbance was measured at 570 nm[51]. Cell reduction ability was expressed as a percentage of untreated control cells.

Aβ1-42 [2] = target: T2, Aβ1-42; assay: Inhibition of Cu2+-induced Aβ1-42 aggregation, thioflavin T fluorescence; assay type: biochemical; settings: Aβ42 aggregation with copper (40 µM); inhibitor 80 µM; ThT fluorescence; read-out: Aβ aggregation inhibition, Cu-ind Aβ aggr
From the text: as §1, §2
as §3, with “The samples were prepared using MeOH (1 mg/mL) as solvent, followed by incubation in a water bath for 24 h at 37 °C with gentle shaking. After incubation, the samples were added to a 96-well plate (BD Falcon) with 180 µL of 5 µM ThT in 50 mM glycine-NaOH (pH 8.5) buffer. Blank samples were prepared for each concentration in a similar way, devoid of peptide.” left out

[3] = Radical scavenging (anti-oxidant) activity, DPPH method; assay type: physicochemical; settings: DPPH in methanol, 30 min, room temperature
Description: A selection of the newly synthesised hybrids was tested for their radical scavenging activity (anti-oxidant activity, EC50), based on their interaction with the 2,2-diphenyl-1-picrylhydrazyl (DPPH) free radical, as previously described.
The anti-oxidant capacity or, more precisely, radical scavenging activity based on the electron and proton donation ability, was evaluated by the DPPH method previously described[29]^,[46]. To a 2.5 mL solution of DPPH (0.002%) in methanol, solutions of each compound were added in different volumes to obtain different concentrations in a 3.5 mL final volume. The samples were incubated for 30 min at room temperature. The absorbance was measured at 517 nm against the corresponding blank (methanol). The antioxidant activity was calculated by Eq. (1)^29. (1) %AA = ((ADPPH−Asample)/ADPPH) × 100
The tests were carried out in triplicate. The compound concentration providing 50% of antioxidant activity (EC50) was obtained by plotting the antioxidant activity against the compound concentration.

[4] = AChE from Electric eel, mean of five independent experiments, read-out: AChE inhibition IC50
[5] = self-mediated Aβ42 aggregation without copper, inhibitor 80 µM, ThT fluorescence

T1 sequence (O42275 24-633): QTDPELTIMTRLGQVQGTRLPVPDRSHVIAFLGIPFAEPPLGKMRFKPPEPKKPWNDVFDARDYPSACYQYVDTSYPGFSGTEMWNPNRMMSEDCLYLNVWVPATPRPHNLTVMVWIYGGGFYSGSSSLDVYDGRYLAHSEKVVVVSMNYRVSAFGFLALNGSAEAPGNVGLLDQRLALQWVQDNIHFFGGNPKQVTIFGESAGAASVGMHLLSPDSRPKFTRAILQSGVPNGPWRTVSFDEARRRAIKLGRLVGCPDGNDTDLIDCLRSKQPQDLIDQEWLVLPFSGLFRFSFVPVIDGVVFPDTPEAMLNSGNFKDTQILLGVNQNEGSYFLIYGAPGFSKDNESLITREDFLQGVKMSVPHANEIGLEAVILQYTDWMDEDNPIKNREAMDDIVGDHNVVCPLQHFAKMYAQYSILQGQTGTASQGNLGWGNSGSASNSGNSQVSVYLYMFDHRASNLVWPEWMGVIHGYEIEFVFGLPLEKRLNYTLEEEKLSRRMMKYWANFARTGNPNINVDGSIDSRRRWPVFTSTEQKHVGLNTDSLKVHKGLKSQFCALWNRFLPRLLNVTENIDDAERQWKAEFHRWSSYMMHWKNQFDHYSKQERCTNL

| SMILES | IC50 (AChE; [4]) | inhibition at 80 µM (Aβ1-42 [1]; [5]) | further results |
| --- | --- | --- | --- |
| O=C(NCCCNc1c2c(nc3ccccc13)CCCC2)c1cc2ccccc2o1 [Compound 13, N-(3-((1,2,3,4-tetrahydroacridin-9-yl)amino)propyl)benzofuran-2-carboxamide] | 580 nM | 60.6% | – |
| O=C(NCCCCNc1c2c(nc3ccccc13)CCCC2)c1cc2ccccc2o1 [Compound 14, N-(4-((1,2,3,4-tetrahydroacridin-9-yl)amino)butyl)benzofuran-2-carboxamide] | 720 nM | 51.5% | – |
| O=C(NCCCNc1c2c(nc3cc(Cl)ccc13)CCCC2)c1cc2ccccc2o1 [Compound 15, N-(3-((6-chloro-1,2,3,4-tetrahydroacridin-9-yl)amino)propyl)benzofuran-2-carboxamide] | 120 nM | 51% | – |
| O=C(NCCCCNc1c2c(nc3cc(Cl)ccc13)CCCC2)c1cc2ccccc2o1 [Compound 16, N-(4-((6-chloro-1,2,3,4-tetrahydroacridin-9-yl)amino)butyl)benzofuran-2-carboxamide] | 340 nM | 43% | – |
| COc1cccc2cc(C(=O)NCCCNc3c4c(nc5ccccc35)CCCC4)oc12 [Compound 17, 7-Methoxy-N-(3-((1,2,3,4-tetrahydroacridin-9-yl)amino)propyl)benzofuran-2-carboxamide] | 360 nM | 57.5% | – |
| COc1cccc2cc(C(=O)NCCCCNc3c4c(nc5ccccc35)CCCC4)oc12 [Compound 18, 7-Methoxy-N-(4-((1,2,3,4-tetrahydroacridin-9-yl)amino)butyl)benzofuran-2-carboxamide] | – | – | highest non-toxic concentration selected from dose-response screening (SH-SY5Y cells): 20 µM; IC50 (AChE): 760 nM; inhibition at 80 µM (Aβ1-42 [1]): 51.9% |
| O=C(NCCCCNc1c2c(nc3ccccc13)CCCC2)c1cc2cccc(O)c2o1 [Compound 22, 7-Hydroxy-N-(4-((1,2,3,4-tetrahydroacridin-9-yl)amino)butyl)benzofuran-2-carboxamide] | 980 nM | 30.4% | inhibition at 80 µM (Aβ1-42 [2]): 54% |
| Nc1c2c(nc3ccccc13)CCCC2 [TAC, tacrine, reference compound] | – | – | Radical scavenging activity EC50 (DPPH) [3]: weak activity; inhibition at 80 µM (Aβ1-42 [1]): 20% |
